Data taken from paper PMC12718081 (ACS Infectious Diseases, 2025).

Key:
Format in all cases: cell-based, Schistosoma mansoni
[1] = system: Sm.TRPMPZQ; assay: Ca2+ reporter assay in antagonist mode (block of PZQ activation of Sm.TRPMPZQ); settings: preincubation 1 nM-100 μM for 10 min, data not shown
Protocol: (§1) The Ca^2+ reporter assay was performed using a Fluorescence Imaging Plate Reader (FLIPR) system, as described in the Supporting Information.
(§2) Adult worm ex-vivo high-content assay
(§3) “Area” and “False Negative Rate” from the MeasureObjectSizeShape and MeasureObjectOverlap modules, respectively. These measurements were then modeled by a multilevel generalized linear statistical model. The effects of the experimental treatments on […]
(§4) The half-maximal inhibitory
(§5) Windows (GraphPad Software, Boston, MA, USA; www.graphpad.com). […]
(§6) with DMSO as a negative control. […]
(§7) reader. […] The fluorescence
(§8) Untransfected HEK293 cells were used as a control.
(§9) 10% fetal bovine serum (FBS). […]
(§10) atmosphere containing 5% CO₂. Following incubation, the growth medium was removed and […]
buffer containing 2.5 mM probenecid in HBSS (with Ca²⁺ and Mg²⁺), 20 mM HEPES, 0.3% BSA (Sigma, A7030), and 0.03% L-ascorbic acid (Sigma). Cells were incubated for 40 minutes at 37 °C and subsequently for 20 minutes at room temperature. A total of seven PZQ derivatives were tested, using racemic PZQ included as a positive control on each assay plate. Drug dilutions were prepared in assay buffer without dye and probenecid and dispensed into separate flat-bottom 384-well plates. Calcium flux measurements were performed at room temperature using a […]
(§11) instrument (Molecular Devices). Baseline fluorescence was recorded for 20 seconds, followed by the addition of 5 µL of each drug solution, after which fluorescence was measured continuously for 250 seconds. […]
schistosomula after 72h of incubation using the Roboworm high-content screening assay. Auranofin (AUR) was included at 10 µM as positive control. DMSO was included as a negative control. Compounds were considered hits if both their motility and phenotype scores were lower than -0.35 and -0.15, respectively (region delimited by the […]
(1 picture or pasted object on this page, not shown here)

[2] = system: juvenile schistosomes (21 days p.i.); assay: XTT juvenile viability assay; settings: 48 h; for parasite metabolic activity compared to the DMSO control group (XTT): 100 μM
[3] = system: S. mansoni schistosomula; assay: Roboworm high-content screening assay on schistosomula (motility and phenotype scores); settings: 72 h
Protocol: All PZQ derivatives were synthesized in the racemic form and evaluated as such. The compounds were initially screened at 10 μM against S. mansoni schistosomula using the Roboworm high-content screening assay , and were declared hits or nonhits based on their effect on parasites’ motility and phenotype scores after 72 h of incubation. As none of the compounds were considered hits at this concentration, we performed a titration from 6.25 to 50 μM (Figure S27).
DMSO was included as a negative control. Compounds were considered hits if both their motility and phenotype scores were lower than −0.35 and −0.15, respectively (region delimited by the dashed lines). In red, PZQ analogues selected for further analysis.
For the collection of schistosomula, B. glabrata snails infected with S. mansoni were shed for 2 h under light at 26 °C. Cercariae were collected, mechanically transformed into schistosomula as previously described.
DMSO (0.625%, v/v) was included as a negative control. Z′ values for the assay were calculated to be 0.542 for phenotype and 0.361 for motility. […]
Auranofin (AUR) was included at 10 µM as positive control. DMSO was included as a negative control. Compounds were considered hits if both their motility and phenotype scores were lower than -0.35 and -0.15, respectively (region delimited by the […]

[4] = system: Sm.TRPMPZQ Y1392A mutant; assay: Ca2+ reporter activation assay, Sm.TRPMPZQ point mutant Y1392A; settings: 100 μM
Protocol: This trend likely indicates a similar binding mode.
The colored cells represent the range of EC50 values for each compound based on their ability to activate the channel.
as §1, §2, §3, §4, §5, §6, §7, §8, §9, §10
buffer containing 2.5 mM probenecid in HBSS (with Ca²⁺ and Mg²⁺), 20 mM HEPES, 0.3% BSA (Sigma, A7030), and 0.03% L-ascorbic acid (Sigma). Cells were incubated for 40 minutes at 37 °C and subsequently for 20 minutes at room temperature. […]
as §11

Row | SMILES | block of PZQ activation of Sm.TRPMPZQ (antagonist mode) [1] | parasite metabolic activity compared to the DMSO control group (XTT) [2] | effect on parasites motility ([3]; 50 μM) | hit classification (motility and phenotype scores) ([3]; 50 μM, hit if motility < -0.35 and phenotype < -0.15) | viability at 100 µM ([2]; Schistosoma mansoni, mean ± SD, read-out: juvenile worm viability (XTT, % residual viability)) [%] | activity at Sm.TRPMPZQ carrying the Y1392A mutation [4] | hit classification (motility and phenotype scores) ([3]; 12.5 μM) | hit classification (motility and phenotype scores) ([3]; 25 μM)
1 | O=C(C1CCCCC1)N1CC(=O)N2CCc3ccc(-n4cc(C5=CCCCC5)nn4)cc3C2C1 (stereo not drawn) [Compound 5b] | failed to impact subsequent responses to PZQ | – | – | – | – | – | – | –
2 | CCCc1cn(-c2ccc3c(c2)C2CN(C(=O)C4CCCCC4)CC(=O)N2CC3)nn1 (stereo not drawn) [Compound 5e] | – | significantly decreased | significant effect | did not change their phenotype score enough to be considered a hit | – | – | – | –
3 | [N-]=[N+]=Nc1ccc2c(c1)C1CN(C(=O)C3CCCCC3)CC(=O)N1CC2 (stereo not drawn) [Compound 4] | – | significantly decreased | – | – | 44.6 | retained residual activity | borderline | declared a hit
